Read-outs that look alike come from different tables or passages of the source.
Experiments:
[1] = 6 week supplementation; cited from earlier work
[2] = tested on: oxidized LDL; experiment: Clinical study: plasma oxidized LDL in women under Yasmin; type: in vivo; conditions: for number of responders (minimum of 35% decrease of oxLDL): T4 versus T0; for effect on LDL oxidation: general conclusion; for oxLDL at T4 compared to T0: plasma, within arm
From the text: (§1) Subjects: 60 women were selected on the basis of the below-mentioned selection criteria and divided into 4 groups. Keeping a possible dropout in mind (in total 45 women completed the study), these groups were designed such, that by the end of the study; groups SOCO_A and SOCO_D would contain 15 subjects; and groups SOCO_B and SOCO_C would contain 10 subjects.
(§2) Inclusion Criteria: • Age: between 18 and 35 years • Informed consent collected • Patients under oral contraception with Yasmin for at least three months
(§3) Whereby one menstrual cycle is flanked by 2 vertical lines and, whereby: • SOCO_A) represents the intake of a combination of a Zinc supplement and a Quercetin supplement • SOCO_B) represents the intake of a Zinc supplement • SOCO_C) represents the intake of a Quercetin supplement • SOCO_D) represents the intake of a placebo supplement
(§4) And whereby: • V1 represents a first visit between day −42 and day −14 • V2 represents a second visit between day −7 and −3 • V3 represents a third visit between day 23 and 27 • V4 represents a fourth visit between day 51 and 55 • V5 represents a fifth visit between day 113 and 117
(§5) SOCO_A: Quercetin DC 500 mg • Zinc picolinate 20% (elementary 22.5 mg) 113 mg • Magnesium stearate 3 mg • 1 capsule per day during 112 days
(§6) SOCO_B: Zinc picolinate 20% (elementary 22.5 mg) 113 mg • Dicalcium phosphate 125 mg • Cellulose microcrystals 375 mg • Magnesium stearate 3 mg • 1 capsule per day during 112 days
(§7) SOCO_C: Quercetin DC 500 mg • Dicalcium phosphate 85 mg • Cellulose microcrystals 28 mg • Magnesium stearate 3 mg • 1 capsule per day during 112 days
(§8) SOCO_D: Dicalcium phosphate 460 mg • Cellulose microcrystals 153 mg • Magnesium stearate 3 mg • 1 capsule per day during 112 days
(§9) A blood sample (2-3 tubes of +/−5 ml) was collected during each visit. A maximum of 60 ml blood was required per subject for the whole study. Blood samples for haematological and biochemical tests were collected during V1 and V5, and blood samples for oxidative stress assessment were collected during V2, V3, V4 and V5.
(§10) Plasma concentration of lipid peroxides, copper and zinc were determined in blood samples taken at V2, V3, V4 and V5. Plasma concentration of oxidized LDL was determined in blood samples taken at V2 and V5. The expression of 200 genes involved in oxidative stress were determined via quantitative measurements of mRNA expression by microarray, in blood samples taken at V2 and V5.

[3] = supplementation; cited from earlier work
[4] = tested on: LDL; conditions: in vitro; cited from earlier work
[5] = Clinical study: plasma lipid peroxides, copper and zinc in women under Yasmin; type: in vivo
From the text: as §1, §2, §3, §4, §5, §6, §7, §8, §9, §10

[6] = tested on: LDL; conditions: zinc supplementation; cited from earlier work
[7] = hypobaric hypoxia studies and COPD study; cited from earlier work
[8] = zinc supplemented group; cited from earlier work
[9] = zinc supplementation; cited from earlier work

For `C[C@@H]1O[C@@H](OC[C@H]2O[C@@H](Oc3c(-c4ccc(O)c(O)c4)oc4cc(O)cc(O)c4c3=O)[C@H](O)[C@@H](O)[C@@H]2O)[C@H](O)[C@H](O)[C@H]1O` [rutin], the “levels of three plasma flavonoids” value [1] is listed as “significantly elevated”.
For `O=c1c(O)c(-c2ccc(O)c(O)c2)oc2cc(O)cc(O)c12` [quercetin alone, Quercetin], the “number of responders (minimum of 35% decrease of oxLDL)” value [2] was 0%, the “effect on LDL oxidation” value [2] was “weak effect” and the “oxLDL at T4 compared to T0” value [2] was “weak significant decrease”.
In the case of `O=c1c(O)c(-c2ccc(O)c(O)c2)oc2cc(O)cc(O)c12` [quercetin], the “protection from oxidative stress induced damage” value [3] is given as “does not exert protection” and the “inhibition of oxidative damage to LDL” value [4] is given as “most effective inhibitor”.
In the case of Zinc picolinate [Zinc alone], the “number of responders (minimum of 35% decrease of oxLDL)” value [2] is reported as 0%, the “effect on LDL oxidation” value [2] is reported as “No effect” and the “oxLDL at T4 compared to T0” value [2] is reported as “no significant changes”. The “mean relative change in Cu/Zn between T4 and T0 (mean Cu/Zn decrease)” value ([5]; compared to placebo) was “significant”, the “mean relative change in Zn between T4 and T0 (mean zinc increase)” value ([5]; compared to placebo) was “significant” and the “mean relative change in Cu/Zn between T4 and T0 (mean Cu/Zn decrease)” value ([5]; compared to quercetin alone) was “significant”. The “mean relative change in Zn between T4 and T0 (mean zinc increase)” value ([5]; compared to quercetin alone) was “significant”.
In the case of `[Zn]` [zinc], the “Cu-induced LDL oxidation” value [6] is given as “no effects”, the oxidative stress markers [7] is given as “no effects” and the incidence of infection [8] is given as “significantly lower”. The lipid peroxides [8] was “significant diminution” and the oxidative stress markers [9] was “did not alter”.
